From US12642769B2, “Delivery carrier into cell” (Kabusikikaisya ITO, priority 2019, dated 2026)

Key:
Format in all cases: cell-based
[1] = tested on: LabCyte EPI-MODEL normal skin epidermis model; experiment: in vitro skin irritation test OECD TG-439, temperature-responsive carriers; conditions: the lower the score, the higher the toxicity; Water (negative control) 100 points
Method: In Vitro Skin Irritation Test of Cultured Cell According to OECD Guidelines. OECD
Guidelines for the Testing of Chemicals, 439. (2015)
LabCyte EPI-MODEL was used as a normal skin epidermis model, and a skin irritation test was performed and scored. As a result (the lower the score, the higher the toxicity), the score is 3 points for 5% SLS (positive control), 100 points for Water (negative control), 125 points for A-1 of the present invention, and B-1 was 101, C-1 was 89, and D-1 was 83, and the viable cell rate was 50% or higher in all the formulations. All skin irritation was denied.

[2] = tested on: LabCyte EPI-MODEL normal dermal epidermis model; experiment: in vitro skin irritation test OECD 439, pH-responsive carriers; conditions: the lower the score, the higher the toxicity; Water (negative control) 100 points
Method: In vitro skin irritation tests were conducted using cultured cell according to OECD guidelines. We used OECD GUIDELINES FOR THE TESTING OF CHEMICALS, 439. (2015) for guidelines. As a result of the skin irritation test using LabCyte EPI-MODEL as a normal dermal epidermis model (the lower the score, the higher the toxicity and the lower the safety), the scores were 3 points for 5% SLS (positive control) and 100 points for Water (negative control), 134 points for A-2, 109 points for B-2,95 points for C-2, and 91 points for D-2, and the percentage of viable cell was more than 50% for all the preparations and the skin irritation was denied.

[3] = tested on: LabCyte EPI-MODEL normal skin epidermis model; experiment: in vitro skin irritation test OECD 439, photoresponsive carriers; conditions: the higher the score, the higher the safety; Water (negative control) 100 points
Method: In vitro skin irritation tests were performed on cultured cell according to OECD guidelines. The guidelines used were OECD GUIDELINES FOR THE TESTING OF CHEMICALS, 439. (2015). LabCyte EPI-MODEL was used as a normal skin epidermis model, and a skin irritation test was performed and scored. As a result (the higher the score, the higher the safety), the score is 5% SLS (positive control) 3 points, Water (negative control) 100 points, A-1 of the present invention is 111 points, B-1 was 98 points, C-1 was 87 points, and D-1 was 79 points. The viable cell rate of all the preparations was 50% or more, and skin irritation was denied.

Measured: skin irritation test score

CCCCCCCCCCCCOS(=O)(=O)[O-].[Na+] [SLS]
3 points: all assays above
